According to patent publication US10512631B2, “Chalcone compounds” (Beth Israel Deaconess Medical Center, Inc., priority 2015, dated 2019):

How the values were obtained:
Format in all cases: cell-based
A549 [1] = test: Cytoxicity / crystal violet staining, A549; conditions: average of triplicates, % of apoptotic cells vs DMSO controls, N.A. = not active at 10 μM
Description: (§1) PC3 (provided by Dr. Steven Balk's laboratory in Department of Medicine at Beth Israel Deaconess Medical Center), PANC02 and CRL2119 (provided by Dr. Pankaja Seth's laboratory in Department of Medicine at Beth Israel Deaconess Medical Center), A549 (ATCC) cell lines were cultured according to manufacturer's protocols. Briefly, PC3 were cultured in RPMI medium supplemented with 10% FBS (Atlanta). PANC-2, A549 and CRL2119 were cultured in DMEM High medium supplemented with 10% FBS (Atlanta). Human bronchial epithelial cells (BEC) were cultured in Airway Epithelial Cell Basal Medium with the Bronchial Epithelial cell growth kit (ATCC) according to manufacturer's protocol and used at passages 3-5.
(§2) Cells were seeded at 5×10^3 concentration in 96 well plates and treated with test compounds or DMSO (0.001-10 μM) for 72 hours. Culture medium was removed and cells were stained with crystal violet solution (Sigma-Aldrich) for 15 minutes while shaking at room temperature. Crystal violet was then removed and cells were repeatedly washed in water. Attached cells stained with crystal violet were dried and then resuspended in 10% acetic acid. Absorbance was measured at 562 nm. The intensity of staining corresponded directly to the number of live cells.

PC3 [2] = test: Cytoxicity / crystal violet staining, PC3; conditions: average of triplicates, % of apoptotic cells vs DMSO controls, N.A. = not active at 10 μM
Description: as §1, §2

A549 [3] = test: Cytoxicity / crystal violet staining, A549; conditions: Homo sapiens, 0.01-5 μM for 72 hours, n=4
PC3 [4] = test: Cytoxicity / crystal violet staining, PC3; conditions: Homo sapiens, PC-3; 0.01-5 μM for 72 hours, n=4
A549 cells = test: Invasion chambers (Transwell, Matrigel); conditions: serum chemoattractants, compared to untreated cells
Description: The invasion of A549 cells was measured using Transwell chambers (Chemicon, Millipore, Calif.) according to the manufacturer's protocol. Briefly, A549 cells were treated with test compounds at 1 μM in 500 μl of DMEM medium without FBS for 24 hours. Medium in the upper chamber was serum-free while medium in the lower chamber contained 10% FBS as a source of chemoattractants. Cells that passed through the Matrigel-coated membrane were stained and photographed after 24 hours of incubation. Absorbance was measured at 562 nm by ELISA reader after dissolving of stained cells in 10% acetic acid.

PC3 cells = test: Immunostaining of α-tubulin and β-actin in PC3 cells; conditions: Compound 6 1 μM or docetaxel 20 nM, 24 hours
Description: Immunofluorescence and immunostaining on cell lines and tumor samples were performed as described in Wegiel et al, Cancer research 2013, 73(23), 7009-21. Anti-mouse STMN1, anti-P (Ser10)-Histone H3, and α-tubulin antibody were obtained from Cell Signaling. β-actin antibody was obtained from Sigma-Aldrich. […] After immunofluorescence staining, the number of P-Histone H3 was quantified per field of view at 40× magnification using Zeiss Axiovert Microscope.

Compound: O=C1/C(=C/c2ccc3[nH]ccc3c2)CCc2ccccc21 [Compound 1]
- Cytoxicity (% cell killing at 10 μM) A549 (A549 [1]): 47%
- Cytoxicity (% cell killing at 10 μM) PC3 (PC3 [2]): 55%

Compound: Cn1ccc2cc(/C=C3\CCc4ccccc4C3=O)ccc21 [Compound 2]
- Cytoxicity (% cell killing at 10 μM) A549 (A549 [1]): 56%
- Cytoxicity (% cell killing at 10 μM) PC3 (PC3 [2]): 52%

Compound: CCn1ccc2cc(/C=C3\CCc4ccccc4C3=O)ccc21 [Compound 3]
- Cytoxicity (% cell killing at 10 μM) A549 (A549 [1]): 52%
- Cytoxicity (% cell killing at 10 μM) PC3 (PC3 [2]): 58%

Compound: Cn1ccc2ccc(/C=C3\CCc4ccccc4C3=O)cc21 [Compound 4]
- Cytoxicity (% cell killing at 10 μM) A549 (A549 [1]): 53%
- Cytoxicity (% cell killing at 10 μM) PC3 (PC3 [2]): 61%

Compound: O=C1/C(=C/c2ccc3[nH]ccc3c2)CCc2ccc(F)cc21 [Compound 7, (2E)-7-fluoro-2-(1H-indol-5-ylmethylidene)-1,2,3,4-tetrahydronaphthalen-1-one]
- Cytoxicity (% cell killing at 10 μM) A549 (A549 [1]): 43%
- IC50 (A549 [3]): 0.271 µM
- IC50 (PC3 [4]): 0.449 µM
- Cytoxicity (% cell killing at 10 μM) PC3 (PC3 [2]): 45%
- invasion / migration through matrigel coated chambers (A549 cells): accelerated migration

Compound: CCn1ccc2cc(/C=C3\CCc4ccc(F)cc4C3=O)ccc21 [Compound 8, (2E)-2-[(1-ethyl-1H-indol-5-yl)methylidene]-7-fluoro-1,2,3,4-tetrahydronaphthalen-1-one]
- Cytoxicity (% cell killing at 10 μM) A549 (A549 [1]): 38%
- IC50 (A549 [3]): 0.113 µM
- IC50 (PC3 [4]): 0.106 µM
- Cytoxicity (% cell killing at 10 μM) PC3 (PC3 [2]): 33%
- invasion / migration through matrigel coated chambers (A549 cells): strongly inhibited invasion

Compound: CC(=O)n1ccc2cc(/C=C3\CCc4ccc(F)cc4C3=O)ccc21 [Compound 9]
- Cytoxicity (% cell killing at 10 μM) A549 (A549 [1]): 28%
- Cytoxicity (% cell killing at 10 μM) PC3 (PC3 [2]): 24%

Compound: CCn1ccc2cc(/C=C3\CCc4ccc(OC)cc4C3=O)ccc21 [Compound 12]
- Cytoxicity (% cell killing at 10 μM) A549 (A549 [1]): 20%
- Cytoxicity (% cell killing at 10 μM) PC3 (PC3 [2]): 49%

Compound: COc1ccc2c(c1)C(=O)/C(=C/c1ccc3[nH]ccc3c1)CC2 [Compound 13]
- Cytoxicity (% cell killing at 10 μM) A549 (A549 [1]): 5%
- Cytoxicity (% cell killing at 10 μM) PC3 (PC3 [2]): 55%

Compound: COc1ccc2c(c1)C(=O)/C(=C/c1ccc3c(ccn3C)c1)CC2 [Compound 14]
- Cytoxicity (% cell killing at 10 μM) A549 (A549 [1]): 21%
- Cytoxicity (% cell killing at 10 μM) PC3 (PC3 [2]): 18%

Compound: COc1ccc2c(c1)C(=O)/C(=C/c1ccc3ccn(C)c3c1)CC2 [Compound 15]
- Cytoxicity (% cell killing at 10 μM) A549 (A549 [1]): 24%
- Cytoxicity (% cell killing at 10 μM) PC3 (PC3 [2]): 42%

Compound: COc1cc2c(cc1OC)C(=O)/C(=C/c1ccc3c(ccn3C)c1)CC2 [Compound 16]
- Cytoxicity (% cell killing at 10 μM) PC3 (PC3 [2]): 31%

Compound: CCn1ccc2cc(/C=C3\CCc4cc(OC)c(OC)cc4C3=O)ccc21 [Compound 17]
- Cytoxicity (% cell killing at 10 μM) A549 (A549 [1]): 19%
- Cytoxicity (% cell killing at 10 μM) PC3 (PC3 [2]): 45%

Compound: COc1cc2c(cc1OC)C(=O)/C(=C/c1ccc3ccn(C)c3c1)CC2 [Compound 18]
- Cytoxicity (% cell killing at 10 μM) A549 (A549 [1]): 41%
- Cytoxicity (% cell killing at 10 μM) PC3 (PC3 [2]): 55%

Compound: O=C1/C(=C/c2ccc3[nH]ccc3c2)CCc2ccc(Br)cc21 [Compound 19]
- Cytoxicity (% cell killing at 10 μM) A549 (A549 [1]): 16%
- Cytoxicity (% cell killing at 10 μM) PC3 (PC3 [2]): 42%

Compound: Cn1ccc2cc(/C=C3\CCc4ccc(Br)cc4C3=O)ccc21 [Compound 20]
- Cytoxicity (% cell killing at 10 μM) A549 (A549 [1]): 21%
- Cytoxicity (% cell killing at 10 μM) PC3 (PC3 [2]): 47%

Compound: Cn1ccc2ccc(/C=C3\CCc4ccc(Br)cc4C3=O)cc21 [Compound 21]
- Cytoxicity (% cell killing at 10 μM) A549 (A549 [1]): 26%
- Cytoxicity (% cell killing at 10 μM) PC3 (PC3 [2]): 39%

Compound: CC(=O)O[C@@]12CO[C@@H]1C[C@H](O)[C@@]1(C)C(=O)[C@H](O)C3=C(C)[C@@H](OC(=O)[C@H](O)[C@@H](NC(=O)OC(C)(C)C)c4ccccc4)C[C@@](O)([C@@H](OC(=O)c4ccccc4)[C@H]21)C3(C)C [docetaxel, reference compound]
- microtubule stability (α-tubulin immunostaining) (PC3 cells): stabilization of microtubules
